Data from publication PMC7822176, “Pursuing the Complexity of Alzheimer’s Disease: Discovery of Fluoren-9-Amines as Selective Butyrylcholinesterase Inhibitors and N-Methyl-D-Aspartate Receptor Antagonists” (Biomolecules, 2020).
Where a name gives a salt, the structure may show the parent alone.

Tested on: not listed separately
Assay: MTT cell viability assay, CHO-K1
Type: cell-based
Details: Chinese hamster, CHO-K1 cells, 24 h exposure, mean of three independent measurements, read-out: IC50 ± SEM CHO-K1 cell viability
Procedure: (§1) Standard MTT assay (3-(4,5-dimethylthiazol-2-yl)-2,5-diphenyltetrazolium bromide; Sigma Aldrich, Prague, Czech Republic) was used according to the manufacturer’s protocols on the CHO-K1 (Chinese hamster ovary, ECACC, Salisbury, UK) and hCMEC/D3 (Sigma Aldrich, St. Louis, MO, USA). The cells were cultured according to recommended conditions and seeded in a density of 8000 cells per well, as described previously. […] CHO-K1 cells were exposed to serially diluted tested compounds for 24 h. Then, the medium was replaced by a fresh medium containing 0.5 mg/mL of MTT, and the cells were allowed to produce formazan for another approximately 3 h under surveillance. Thereafter, the medium with MTT was removed, and crystals of formazan were dissolved in DMSO (100 µL/well; PENTA s.r.o., Prague, Czech Republic). Cell viability was assessed spectrophotometrically by the amount of formazan produced. The absorbance was measured at 570 nm with a 650-nm reference wavelength on Synergy HT (BioTek, Winooski, VT, USA). The IC50 value (half-maximal inhibitory concentration) was calculated from the control-subtracted triplicates using nonlinear regression (four parameters) by GraphPad Prism 7.03 software (GraphPad Software Inc., San Diego, CA, USA) for the CHO-K1 cell line, and for hCMEC/D3 cells, the cell viability was expressed as the % relative to the untreated control. Final IC50 and SEM (standard error of the mean) values were obtained as a mean of three independent measurements.

Structure (SMILES)	IC50 at 24 h
CCNC1c2ccccc2-c2ccccc21 [Compound 3h, N-Ethyl-9H-fluoren-9-amine hydrochloride]	417 ± 16 µM
c1ccc2c(c1)-c1ccccc1C2N1CCCCC1 [Compound 3f, 1-(9H-fluoren-9-yl)piperidine hydrochloride]	872 ± 10 µM
COCCNC1c2ccccc2-c2ccccc21 [Compound 3g, N-(2-methoxyethyl)-9H-fluoren-9-amine hydrochloride]	738 ± 1 µM
CNC1c2ccccc2-c2ccccc21 [Compound 3b, N-Methyl-9H-fluoren-9-amine hydrochloride]	427 ± 12 µM
c1ccc2c(c1)-c1ccccc1C2N1CCOCC1 [Compound 3l, 4-(9H-fluorene-9-yl)morpholine hydrochloride]	> 800 µM
c1ccc2c(c1)-c1ccccc1C2N1CCCC1 [Compound 3o, 1-(9H-fluoren-9-yl)pyrrolidine hydrochloride]	413 ± 15 µM
CCN(CC)C1c2ccccc2-c2ccccc21 [Compound 3i, N,N-Diethyl-9H-fluoren-9-amine hydrochloride]	266 ± 3 µM
CC(C)NC1c2ccccc2-c2ccccc21 [Compound 3a, N-Propan-2-yl-9H-fluoren-9-amine hydrochloride]	387 ± 32 µM
c1ccc2c(c1)-c1ccccc1C2NC1CC1 [Compound 3d, N-Cyclopropyl-9H-fluoren-9-amine hydrochloride]	353 ± 32 µM
CC(C)CNC1c2ccccc2-c2ccccc21.Cl [Compound 3n, N-(2-methylpropyl)-9H-fluoren-9-amine hydrochloride]	236 ± 24 µM
CCN1CCN(C2c3ccccc3-c3ccccc32)CC1 [Compound 3k, 1-(9H-fluorene-9-yl)-4-ethylpiperazine dihydrochloride]	239 ± 35 µM
CN1CCN(C2c3ccccc3-c3ccccc32)CC1 [Compound 3j, 1-(9H-fluorene-9-yl)-4-methylpiperazine dihydrochloride]	259 ± 12 µM

Biological target: T1, hBChE (Homo sapiens, UniProt P06276)
T1 construct: made in house
T1 sequence (P06276 29-602): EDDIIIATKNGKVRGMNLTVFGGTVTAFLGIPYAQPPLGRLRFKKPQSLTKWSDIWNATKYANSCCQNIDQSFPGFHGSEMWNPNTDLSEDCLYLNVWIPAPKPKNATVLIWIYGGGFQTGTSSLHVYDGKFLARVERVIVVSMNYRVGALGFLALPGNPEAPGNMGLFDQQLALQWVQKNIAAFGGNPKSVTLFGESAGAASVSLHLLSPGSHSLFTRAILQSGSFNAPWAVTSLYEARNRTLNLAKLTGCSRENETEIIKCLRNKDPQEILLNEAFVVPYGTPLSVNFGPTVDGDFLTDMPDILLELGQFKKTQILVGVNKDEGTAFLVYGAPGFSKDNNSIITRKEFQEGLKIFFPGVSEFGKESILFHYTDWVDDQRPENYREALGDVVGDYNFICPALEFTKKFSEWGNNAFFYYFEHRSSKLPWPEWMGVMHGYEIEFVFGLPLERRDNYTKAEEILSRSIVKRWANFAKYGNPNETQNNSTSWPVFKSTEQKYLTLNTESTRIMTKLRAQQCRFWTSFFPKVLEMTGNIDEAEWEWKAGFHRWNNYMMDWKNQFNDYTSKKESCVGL
Assay: biochemical
Type: biochemical
Details: not given
Procedure: The human recombinant BChE and AChE were prepared at the Department of Toxicology and Military Pharmacy (Faculty of Military Health Sciences, Hradec Kralove, Czech Republic). 5,5′-dithiobis(2-nitrobenzoic acid) (Ellman’s reagent, DTNB), phosphate buffer (PB, pH 7.4), acetylthiocholine (ATC), and butyrylthiocholine (BTC) were purchased from Sigma-Aldrich, Prague, Czech Republic. For measuring purposes, polystyrene Nunc 96-well microplates with a flat bottom shape (Thermo Fisher Scientific, Waltham, MA, USA) were utilized. All the assays were carried out in 0.1-M KH2PO4/K2HPO4 buffer, pH 7.4. Enzyme solutions were prepared at 2.0 units/mL in 2-mL aliquots. […] Tested compounds were preincubated for 5 min. The reaction was started by the immediate addition of 20 µL of the substrate. […] Each concentration was assayed in triplicate. Software GraphPad Prism 5 (San Diego, CA, USA) was used for the statistical data evaluation.

Structure (SMILES)	IC50
CN1CCN(C2c3ccccc3-c3ccccc32)CC1 [Compound 3j, 1-(9H-fluorene-9-yl)-4-methylpiperazine dihydrochloride]	23.5 ± 0.8 µM

Same assay, conditions: mean of at least three experiments; read-out: IC50 ± SEM hBChE

Structure (SMILES)	IC50
CCNC1c2ccccc2-c2ccccc21 [Compound 3h, N-Ethyl-9H-fluoren-9-amine hydrochloride]	6.58 ± 0.19 µM
c1ccc2c(c1)-c1ccccc1C2N1CCCCC1 [Compound 3f, 1-(9H-fluoren-9-yl)piperidine hydrochloride]	2.13 ± 0.06 µM
COCCNC1c2ccccc2-c2ccccc21 [Compound 3g, N-(2-methoxyethyl)-9H-fluoren-9-amine hydrochloride]	2.56 ± 0.11 µM
CNC1c2ccccc2-c2ccccc21 [Compound 3b, N-Methyl-9H-fluoren-9-amine hydrochloride]	8.91 ± 0.31 µM
c1ccc2c(c1)-c1ccccc1C2N1CCOCC1 [Compound 3l, 4-(9H-fluorene-9-yl)morpholine hydrochloride]	54.7 ± 1.9 µM
c1ccc2c(c1)-c1ccccc1C2N1CCCC1 [Compound 3o, 1-(9H-fluoren-9-yl)pyrrolidine hydrochloride]	1.8 ± 0.06 µM
CCN(CC)C1c2ccccc2-c2ccccc21 [Compound 3i, N,N-Diethyl-9H-fluoren-9-amine hydrochloride]	5.38 ± 0.11 µM
c1ccc2c(c1)-c1ccccc1C2NC1CC1 [Compound 3d, N-Cyclopropyl-9H-fluoren-9-amine hydrochloride]	6.42 ± 0.22 µM
CCN1CCN(C2c3ccccc3-c3ccccc32)CC1 [Compound 3k, 1-(9H-fluorene-9-yl)-4-ethylpiperazine dihydrochloride]	12.8 ± 0.3 µM

Biological target: T2, GluN1/GluN2B receptors (Homo sapiens, UniProt Q05586+Q13224)
T2 construct: expressed in transfected cells; host or cells: HEK293
T2 sequence (Q13224 27-1484, other chains not shown): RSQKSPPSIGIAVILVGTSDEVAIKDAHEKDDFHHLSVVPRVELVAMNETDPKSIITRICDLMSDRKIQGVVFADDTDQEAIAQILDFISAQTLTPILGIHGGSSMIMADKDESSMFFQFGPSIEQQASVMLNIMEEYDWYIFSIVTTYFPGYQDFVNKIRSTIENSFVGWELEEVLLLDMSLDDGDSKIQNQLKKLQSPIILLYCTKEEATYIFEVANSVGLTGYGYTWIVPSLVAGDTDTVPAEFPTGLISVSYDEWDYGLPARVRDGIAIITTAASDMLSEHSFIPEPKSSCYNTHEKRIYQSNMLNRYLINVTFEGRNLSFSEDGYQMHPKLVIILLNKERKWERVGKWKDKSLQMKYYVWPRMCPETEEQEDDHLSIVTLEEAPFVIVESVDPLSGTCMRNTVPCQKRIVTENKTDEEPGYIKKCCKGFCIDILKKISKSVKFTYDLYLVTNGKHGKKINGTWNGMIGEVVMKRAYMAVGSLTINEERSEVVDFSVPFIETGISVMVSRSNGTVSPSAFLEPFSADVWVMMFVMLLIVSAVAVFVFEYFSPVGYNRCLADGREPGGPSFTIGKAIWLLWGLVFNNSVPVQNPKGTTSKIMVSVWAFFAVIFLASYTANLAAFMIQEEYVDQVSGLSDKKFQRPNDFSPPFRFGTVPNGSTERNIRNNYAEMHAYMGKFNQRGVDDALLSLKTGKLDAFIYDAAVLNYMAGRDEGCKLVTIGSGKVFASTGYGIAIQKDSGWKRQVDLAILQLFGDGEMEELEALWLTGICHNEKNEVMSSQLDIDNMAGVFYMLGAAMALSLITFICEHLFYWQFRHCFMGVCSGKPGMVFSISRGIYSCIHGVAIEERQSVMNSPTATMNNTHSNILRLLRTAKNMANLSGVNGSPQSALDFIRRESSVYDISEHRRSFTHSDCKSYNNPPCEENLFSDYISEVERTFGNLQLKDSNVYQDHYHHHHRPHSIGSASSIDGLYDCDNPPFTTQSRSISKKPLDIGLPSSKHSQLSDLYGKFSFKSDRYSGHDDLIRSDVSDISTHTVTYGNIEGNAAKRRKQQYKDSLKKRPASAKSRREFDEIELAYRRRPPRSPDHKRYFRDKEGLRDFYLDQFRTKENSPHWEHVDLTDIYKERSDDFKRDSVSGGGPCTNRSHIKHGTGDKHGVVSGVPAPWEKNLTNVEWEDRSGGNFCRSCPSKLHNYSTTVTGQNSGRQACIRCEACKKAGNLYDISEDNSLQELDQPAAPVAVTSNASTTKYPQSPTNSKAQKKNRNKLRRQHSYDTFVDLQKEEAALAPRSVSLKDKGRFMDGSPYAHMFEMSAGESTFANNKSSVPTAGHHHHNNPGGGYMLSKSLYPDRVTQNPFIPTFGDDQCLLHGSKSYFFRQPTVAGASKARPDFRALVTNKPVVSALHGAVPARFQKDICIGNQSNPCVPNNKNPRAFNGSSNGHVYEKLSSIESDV
Assay: cell-based
Details: not given
Procedure: (§2) The cells grown in a 24-well plate were put in Opti-MEM I media containing a mixture of 0.9 µL of MATra-A Reagent (IBA) and 900 ng of DNA vectors carrying the human versions of the GluN1-1a (GluN1), GluN2A, or GluN2B subunits and green fluorescent protein (GFP; all vectors were added in equal ratio). The cells were placed on a strong magnet plate for 30 min and then trypsinized; resuspended in Opti-MEM I containing 1% FBS, 20-mM MgCl2, and 3-mM kynurenic acid (to inhibit the NMDAR-induced excitotoxicity); and plated on poly-L-lysine-coated glass coverslips. The electrophysiological experiments were executed 24–48 h after transfection.
(§3) Whole-cell patch-clamp recordings were conducted at room temperature on the GFP-positive HEK293 cells using an Axopatch 200B amplifier (Molecular Devices, San Jose, CA, USA); the series resistance compensation was >80% for all cells. […] The WAS02 application system, which can reach the solution exchange time around the recorded cell of 10–20 ms, was used to apply the extracellular solution (ECS).

Structure (SMILES)	h 40 mV GluN1/GluN2B (Hill coefficient)	h −60 mV GluN1/GluN2B (Hill coefficient)
CC12CC3CC(C)(C1)CC(N)(C3)C2 [Memantine, memantine, reference compound]	0.84 ± 0.04	1.04 ± 0.03

Same assay, conditions: HEK293, read-out: RI (%) ± SEM GluN1/GluN2B

Structure (SMILES)	inhibition at 10 µM
CCNC1c2ccccc2-c2ccccc21 [Compound 3h, N-Ethyl-9H-fluoren-9-amine hydrochloride]	17.5 ± 2.46%
c1ccc2c(c1)-c1ccccc1C2N1CCCCC1 [Compound 3f, 1-(9H-fluoren-9-yl)piperidine hydrochloride]	19.4 ± 2.65%
COCCNC1c2ccccc2-c2ccccc21 [Compound 3g, N-(2-methoxyethyl)-9H-fluoren-9-amine hydrochloride]	6.76 ± 1%
CNC1c2ccccc2-c2ccccc21 [Compound 3b, N-Methyl-9H-fluoren-9-amine hydrochloride]	18 ± 0.78%
c1ccc2c(c1)-c1ccccc1C2N1CCOCC1 [Compound 3l, 4-(9H-fluorene-9-yl)morpholine hydrochloride]	11.6 ± 0.52%
c1ccc2c(c1)-c1ccccc1C2N1CCCC1 [Compound 3o, 1-(9H-fluoren-9-yl)pyrrolidine hydrochloride]	32.4 ± 2.99%
CCN(CC)C1c2ccccc2-c2ccccc21 [Compound 3i, N,N-Diethyl-9H-fluoren-9-amine hydrochloride]	20.1 ± 2.82%
CC(C)NC1c2ccccc2-c2ccccc21 [Compound 3a, N-Propan-2-yl-9H-fluoren-9-amine hydrochloride]	25 ± 1.82%
c1ccc2c(c1)-c1ccccc1C2NC1CC1 [Compound 3d, N-Cyclopropyl-9H-fluoren-9-amine hydrochloride]	14.3 ± 0.35%
CC(C)CNC1c2ccccc2-c2ccccc21.Cl [Compound 3n, N-(2-methylpropyl)-9H-fluoren-9-amine hydrochloride]	49.7 ± 1.72%
CCN1CCN(C2c3ccccc3-c3ccccc32)CC1 [Compound 3k, 1-(9H-fluorene-9-yl)-4-ethylpiperazine dihydrochloride]	19.1 ± 1.48%
CN1CCN(C2c3ccccc3-c3ccccc32)CC1 [Compound 3j, 1-(9H-fluorene-9-yl)-4-methylpiperazine dihydrochloride]	21.9 ± 2.1%

Biological target: T3, GluN1/GluN2A receptors (Homo sapiens, UniProt Q05586+Q12879)
T3 construct: expressed in transfected cells; host or cells: HEK293
T3 sequence (Q12879 23-1464, other chains not shown): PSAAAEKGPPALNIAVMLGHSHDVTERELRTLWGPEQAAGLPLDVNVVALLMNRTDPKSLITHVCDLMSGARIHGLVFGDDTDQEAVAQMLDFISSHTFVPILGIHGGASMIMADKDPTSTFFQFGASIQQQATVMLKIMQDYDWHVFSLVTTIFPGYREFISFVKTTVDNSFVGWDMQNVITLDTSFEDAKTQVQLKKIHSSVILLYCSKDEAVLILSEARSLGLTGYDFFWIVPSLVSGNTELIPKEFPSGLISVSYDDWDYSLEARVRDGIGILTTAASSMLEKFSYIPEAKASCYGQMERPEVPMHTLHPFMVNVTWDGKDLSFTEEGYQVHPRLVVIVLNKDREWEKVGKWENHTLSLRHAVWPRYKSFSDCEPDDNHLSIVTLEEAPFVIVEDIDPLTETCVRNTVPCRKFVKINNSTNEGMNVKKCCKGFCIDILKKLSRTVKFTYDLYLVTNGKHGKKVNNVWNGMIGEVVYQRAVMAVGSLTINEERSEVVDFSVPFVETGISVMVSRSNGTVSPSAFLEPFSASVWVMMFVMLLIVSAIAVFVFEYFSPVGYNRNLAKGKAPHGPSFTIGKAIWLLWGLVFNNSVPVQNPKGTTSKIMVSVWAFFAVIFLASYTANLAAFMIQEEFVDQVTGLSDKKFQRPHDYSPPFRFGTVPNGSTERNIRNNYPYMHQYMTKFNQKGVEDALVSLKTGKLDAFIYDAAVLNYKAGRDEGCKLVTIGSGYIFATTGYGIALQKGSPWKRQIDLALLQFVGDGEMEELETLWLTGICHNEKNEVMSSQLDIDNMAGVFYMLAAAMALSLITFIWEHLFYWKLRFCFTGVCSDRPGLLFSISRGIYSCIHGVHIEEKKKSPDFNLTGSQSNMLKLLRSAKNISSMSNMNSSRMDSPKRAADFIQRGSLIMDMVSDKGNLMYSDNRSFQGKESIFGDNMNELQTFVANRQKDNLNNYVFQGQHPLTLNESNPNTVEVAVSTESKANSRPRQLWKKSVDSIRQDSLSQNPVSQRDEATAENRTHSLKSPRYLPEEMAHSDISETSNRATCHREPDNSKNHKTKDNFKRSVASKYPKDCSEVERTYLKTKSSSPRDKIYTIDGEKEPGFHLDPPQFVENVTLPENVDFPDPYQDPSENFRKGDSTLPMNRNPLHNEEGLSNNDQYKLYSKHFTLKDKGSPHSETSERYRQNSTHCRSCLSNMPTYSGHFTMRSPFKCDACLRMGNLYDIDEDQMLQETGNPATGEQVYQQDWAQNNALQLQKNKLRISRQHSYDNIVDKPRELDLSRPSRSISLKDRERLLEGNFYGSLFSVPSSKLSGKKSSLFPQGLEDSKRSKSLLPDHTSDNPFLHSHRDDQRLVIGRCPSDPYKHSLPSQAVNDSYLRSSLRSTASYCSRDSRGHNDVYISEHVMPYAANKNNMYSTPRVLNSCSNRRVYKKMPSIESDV
Assay: cell-based
Details: not given
Procedure: as §2, §3

Structure (SMILES)	h 40 mV GluN1/GluN2A (Hill coefficient)	h −60 mV GluN1/GluN2A (Hill coefficient)
CC12CC3CC(C)(C1)CC(N)(C3)C2 [Memantine, memantine, reference compound]	1.16 ± 0.05	1.04 ± 0.06

Same assay, conditions: HEK293, read-out: RI (%) ± SEM GluN1/GluN2A

Structure (SMILES)	inhibition at 10 µM
CCNC1c2ccccc2-c2ccccc21 [Compound 3h, N-Ethyl-9H-fluoren-9-amine hydrochloride]	26.9 ± 2.14%
c1ccc2c(c1)-c1ccccc1C2N1CCCCC1 [Compound 3f, 1-(9H-fluoren-9-yl)piperidine hydrochloride]	33 ± 1.96%
COCCNC1c2ccccc2-c2ccccc21 [Compound 3g, N-(2-methoxyethyl)-9H-fluoren-9-amine hydrochloride]	18.7 ± 1.98%
CNC1c2ccccc2-c2ccccc21 [Compound 3b, N-Methyl-9H-fluoren-9-amine hydrochloride]	36.2 ± 2.16%
c1ccc2c(c1)-c1ccccc1C2N1CCOCC1 [Compound 3l, 4-(9H-fluorene-9-yl)morpholine hydrochloride]	14.9 ± 1.76%
c1ccc2c(c1)-c1ccccc1C2N1CCCC1 [Compound 3o, 1-(9H-fluoren-9-yl)pyrrolidine hydrochloride]	27.8 ± 1.74%
CCN(CC)C1c2ccccc2-c2ccccc21 [Compound 3i, N,N-Diethyl-9H-fluoren-9-amine hydrochloride]	25.7 ± 1.92%
CC(C)NC1c2ccccc2-c2ccccc21 [Compound 3a, N-Propan-2-yl-9H-fluoren-9-amine hydrochloride]	33.3 ± 1.66%
c1ccc2c(c1)-c1ccccc1C2NC1CC1 [Compound 3d, N-Cyclopropyl-9H-fluoren-9-amine hydrochloride]	26.6 ± 0.85%
CC(C)CNC1c2ccccc2-c2ccccc21.Cl [Compound 3n, N-(2-methylpropyl)-9H-fluoren-9-amine hydrochloride]	37.9 ± 2.43%
CCN1CCN(C2c3ccccc3-c3ccccc32)CC1 [Compound 3k, 1-(9H-fluorene-9-yl)-4-ethylpiperazine dihydrochloride]	32.1 ± 1.01%
CN1CCN(C2c3ccccc3-c3ccccc32)CC1 [Compound 3j, 1-(9H-fluorene-9-yl)-4-methylpiperazine dihydrochloride]	29.1 ± 2.85%

Tested on: hCMEC/D3 cell monolayer
Assay: in vitro
Details: not given
Procedure: (§4) The D3 assay evaluates the ability of compounds to diffuse from the donor compartment through the D3/hCMEC cell membrane into the acceptor compartment. The D3 cells were seeded on a PET membrane (area 1.12 cm^2) with 3-µm pores of the 12-well plates with 12-mm inserts. […] The donor solution (750 µL) was added to the donor compartment (insert), and the same volume of Opti-MEM was added into the acceptor. The concentration of the drug in both compartments was measured by UV-VIS spectrophotometry in 5, 15, 30, and 60 min of incubation in triplicates. The apparent permeability coefficient (Papp) was calculated from the concentration ratios. Tightness of the D3 monolayer was conducted by the fluorescein isothiocyanate (FITC) test after each experiment. […] (1) Papp= dC/dt × Vr/A × C0 • A: area of the well/cell monolayer, • dC/dt: amount in the receiver compartment in given time, • Vr: volume of the receiver compartment, and • C0: the initial concentration of tested compounds.

Structure (SMILES)	CNS (+/−)
CCN(C)C(=O)Oc1cccc([C@H](C)N(C)C)c1 [Rivastigmine, reference compound]	CNS +

Same assay, conditions: Papp correlated to reference drugs

Structure (SMILES)	potential of BBB permeation (in words)
CC(C)CNC1c2ccccc2-c2ccccc21.Cl [Compound 3n, N-(2-methylpropyl)-9H-fluoren-9-amine hydrochloride]	low potential to passively pass the BBB

Same assay, conditions: final prediction from Papp correlated to reference drugs

Structure (SMILES)	CNS (+/−)
O/N=C/c1cc[n+](COC[n+]2ccc(/C=N/O)cc2)cc1 [Obidoxime, reference compound]	CNS −
Cc1cc(=O)n(-c2ccccc2)n1C [Antipyrine, reference compound]	CNS +
CC(C)CNC1c2ccccc2-c2ccccc21.Cl [Compound 3n, N-(2-methylpropyl)-9H-fluoren-9-amine hydrochloride]	CNS −
CC(C)NCC(O)COc1cccc2ccccc12 (stereo not drawn) [Propranolol, reference compound]	CNS +

Tested on: not listed separately
Assay: in vitro
Details: human
Procedure: as §4

Structure (SMILES)	Papp
O/N=C/c1cc[n+](COC[n+]2ccc(/C=N/O)cc2)cc1 [Obidoxime, reference compound]	14.3 ± 0.52 ×10⁻⁶ cm/s
CCN(C)C(=O)Oc1cccc([C@H](C)N(C)C)c1 [Rivastigmine, reference compound]	28.6 ± 4.64 ×10⁻⁶ cm/s
Cc1cc(=O)n(-c2ccccc2)n1C [Antipyrine, reference compound]	17.2 ± 1.82 ×10⁻⁶ cm/s
CC(C)CNC1c2ccccc2-c2ccccc21.Cl [Compound 3n, N-(2-methylpropyl)-9H-fluoren-9-amine hydrochloride]	14.6 ± 1.88 ×10⁻⁶ cm/s
CC(C)NCC(O)COc1cccc2ccccc12 (stereo not drawn) [Propranolol, reference compound]	23.1 ± 2.06 ×10⁻⁶ cm/s

Tested on: not listed separately
Assay: MTT cell viability test, hCMEC/D3
Type: cell-based
Details: human, hCMEC/D3 cells, 50 µM, read-out: % viable cells hCMEC/D3
Procedure: as §1, with “The IC50 value (half-maximal inhibitory concentration) was calculated from the control-subtracted triplicates using nonlinear regression (four parameters) by GraphPad Prism 7.03 software (GraphPad Software Inc., San Diego, CA, USA) for the CHO-K1 cell line, and for hCMEC/D3 cells, the cell viability was expressed as the % relative to the untreated control.” left out

Structure (SMILES)	viability at 50 µM
CC(C)CNC1c2ccccc2-c2ccccc21.Cl [Compound 3n, N-(2-methylpropyl)-9H-fluoren-9-amine hydrochloride]	98.2%

Same assay, conditions: human, hCMEC/D3 cells, 100 µM, read-out: % viable cells hCMEC/D3

Structure (SMILES)	viability at 100 µM
CC(C)CNC1c2ccccc2-c2ccccc21.Cl [Compound 3n, N-(2-methylpropyl)-9H-fluoren-9-amine hydrochloride]	92.7%
